# Experimental data reported in patent US5911990A, “T-cell receptor peptides and methods for preventing the progression to AIDS in an animal model” (Arizona Board of Regents on Behalf of the University of …, priority 1996, dated 1999).
# Ends that are not written are not given here.
# Test: Body weight (Example 2)
# Type: in vivo, mice
# Conditions: various levels of peptide injection or time course of injection postinfection
# Excerpt: Female C57BL/6 mice, 4-weeks old, were obtained from Charles River Laboratories Inc. (Wilmington, Del.). Animals were cared for as required by the University of Arizona Committee on Animal Research. After 2 weeks housing in the animal facility in the Arizona Health Science Center (Tucson, Ariz.), they were randomly assigned to one of the following treatments with 8 mice per group for study A: (1) uninfected, normal mice; (2) uninfected, normal mice injected with saline (pyrogen free); (3) LP-BM5-infected mice injected with 5 μg TCR Vβ CDRI peptide; (4) LP-BM5infected mice injected with 25 μg TCR Vβ CDR1 peptide; (5) LP-BM5 infected mice injected with 100 μg TCR Vβ CDR1 peptide; (6) LP-BM5-infected mice injected with 200 μg TCR Vβ CDR1 peptide; (7) LP-BM5-infected mice injected with 500 μg TCR Vβ CDR1 peptide; (8) LP-BM5-infected mice injected with saline and 200 μg Poly AU adjuvant; (9) LP-BM5-infected mice injected with 25 μg TCR Vβ CDR1 peptide and 230 μg Poly AU adjuvant; (10) LP-BM5-infected mice injected with saline and 230 μg Ribi MPL TDM CWS adjuvant; (11) LP-BM5-infected mice injected with 5 μg TCR Vβ CDR1 peptide and 230 μg Ribi MPL TDM CWS adjuvant; and (12) LP-BM5-infected mice injected with 25 μg TCR Vβ CDR1 peptide and 230 Ribi MPL TDM CWS adjuvant.
# Administration of peptides (dissolved in saline) and adjuvants were performed 2 weeks after LP-BM5 infection. […]
sequence,measurement,value
"CKPISGHNSLFWYRQT [TCR Vβ CDR1 peptide, Cys Lys Pro Ile Ser Gly His Asn Ser Leu Phe Trp Tyr Arg Gln Thr]",body weight of the mice,not affected
